Test results as given in PubChem BioAssay AID2060495 (Molecular Pharmacology Branch, DTP, NCI, 2025).
pIC50: −log10 of the molar value.

System: 521955-158-R2-J5-PDC complex spheroid viability
Assay: Anticancer human tumor 521955-158-R2-J5-PDC patient-derived pancreatic carcinoma cell line growth inhibition [GQUAD]
Conditions: for pIC50: curve of first compound; for viability, T/C: stronger effect = lower value
Procedure, shortened: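 Tumor cells were grown as complex spheroids with HUVEC endothelial cells and mesenchymal stem cells as stroma. G-quadruplex stabilizers were combined with targeted agents over half-log dilutions from near the clinical Cmax, or from 10 microM.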

[1] = second compound 0.0316 µM, first compound 0.0316 µM
[2] = second compound 0.0316 µM, first compound 0.316 µM
[3] = second compound 0.1 µM, first compound 0.0316 µM
[4] = second compound 0.1 µM, first compound 0.316 µM
[5] = second compound 0.316 µM, first compound 0.0316 µM
[6] = second compound 0.316 µM, first compound 0.316 µM
[7] = second compound 1 µM, first compound 0.0316 µM
[8] = second compound 1 µM, first compound 0.316 µM
[9] = second compound 3.16 µM, first compound 0.0316 µM
[10] = second compound 3.16 µM, first compound 0.316 µM
[11] = second compound 10 µM, first compound 0.0316 µM
[12] = second compound 10 µM, first compound 0.316 µM
[13] = second compound 0.0316 µM, first compound 0.1 µM
[14] = second compound 0.0316 µM, first compound 1 µM
[15] = second compound 0.0316 µM, first compound 3.16 µM
[16] = second compound 0.0316 µM, first compound 10 µM
[17] = second compound 0.1 µM, first compound 0.1 µM
[18] = second compound 0.1 µM, first compound 1 µM
[19] = second compound 0.1 µM, first compound 3.16 µM
[20] = second compound 0.1 µM, first compound 10 µM
[21] = second compound 0.316 µM, first compound 0.1 µM
[22] = second compound 0.316 µM, first compound 1 µM
[23] = second compound 0.316 µM, first compound 3.16 µM
[24] = second compound 0.316 µM, first compound 10 µM
[25] = second compound 1 µM, first compound 0.1 µM
[26] = second compound 1 µM, first compound 1 µM
[27] = second compound 1 µM, first compound 3.16 µM
[28] = second compound 1 µM, first compound 10 µM
[29] = second compound 3.16 µM, first compound 0.1 µM
[30] = second compound 3.16 µM, first compound 1 µM
[31] = second compound 3.16 µM, first compound 3.16 µM
[32] = second compound 3.16 µM, first compound 10 µM
[33] = second compound 10 µM, first compound 0.1 µM
[34] = second compound 10 µM, first compound 1 µM
[35] = second compound 10 µM, first compound 3.16 µM
[36] = second compound 10 µM, first compound 10 µM
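Note: spheroids exposed to agents for one week before reading.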
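Throughout, for viability, T/C: 100% = DMSO vehicle control viability.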

`Cc1[nH]c2ccccc2c1CCNCc1ccc(/C=C/C(=O)NO)cc1` + Cc1[nH]c2ccc(F)cc2c1-c1nc2c3cccnc3c3ncccc3c2[nH]1 gave a pIC50 (second compound 0.0316 µM) of 6.95, a pIC50 (second compound 0.1 µM) of 6.81 and a pIC50 (second compound 0.316 µM) of 6.86. For the same molecule, the pIC50 (second compound 1 µM) was 6.65, the pIC50 (second compound 3.16 µM) was 6.68 and the pIC50 (second compound 10 µM) was 6.80. For the same molecule, the viability, T/C (second compound 0.0316 µM, first compound 0.000999 µM) was 116%, the viability, T/C (second compound 0.0316 µM, first compound 0.00316 µM) was 120% and the viability, T/C (second compound 0.0316 µM, first compound 0.00999 µM) was 132%. For the same molecule, the viability, T/C [1] was 102%, the viability, T/C (second compound 0.0316 µM, first compound 0.0999 µM) was 54.1% and the viability, T/C [2] was 23.1%. The viability, T/C (second compound 0.1 µM, first compound 0.000999 µM) was 106%, the viability, T/C (second compound 0.1 µM, first compound 0.00316 µM) was 109% and the viability, T/C (second compound 0.1 µM, first compound 0.00999 µM) was 122%. For the same molecule, the viability, T/C [3] was 116%, the viability, T/C (second compound 0.1 µM, first compound 0.0999 µM) was 64.5% and the viability, T/C [4] was 27.3%. It also gave a viability, T/C (second compound 0.316 µM, first compound 0.000999 µM) of 96.4%, a viability, T/C (second compound 0.316 µM, first compound 0.00316 µM) of 108% and a viability, T/C (second compound 0.316 µM, first compound 0.00999 µM) of 117%. The viability, T/C [5] was 114%, the viability, T/C (second compound 0.316 µM, first compound 0.0999 µM) was 58.3% and the viability, T/C [6] was 27.8%. It also gave a viability, T/C (second compound 1 µM, first compound 0.000999 µM) of 105%, a viability, T/C (second compound 1 µM, first compound 0.00316 µM) of 123% and a viability, T/C (second compound 1 µM, first compound 0.00999 µM) of 131%. The viability, T/C [7] was 106%, the viability, T/C (second compound 1 µM, first compound 0.0999 µM) was 102% and the viability, T/C [8] was 27.9%. The viability, T/C (second compound 3.16 µM, first compound 0.000999 µM) was 106%, the viability, T/C (second compound 3.16 µM, first compound 0.00316 µM) was 110% and the viability, T/C (second compound 3.16 µM, first compound 0.00999 µM) was 118%. For the same molecule, the viability, T/C [9] was 109%, the viability, T/C (second compound 3.16 µM, first compound 0.0999 µM) was 92% and the viability, T/C [10] was 25.6%. It also gave a viability, T/C (second compound 10 µM, first compound 0.000999 µM) of 92.4%, a viability, T/C (second compound 10 µM, first compound 0.00316 µM) of 105% and a viability, T/C (second compound 10 µM, first compound 0.00999 µM) of 110%. For the same molecule, the viability, T/C [11] was 115%, the viability, T/C (second compound 10 µM, first compound 0.0999 µM) was 66.3% and the viability, T/C [12] was 24.7%.

Work on `O=C(NO)c1cnc(N2CCN(S(=O)(=O)c3ccc4ccccc4c3)CC2)nc1` + Cc1[nH]c2ccc(F)cc2c1-c1nc2c3cccnc3c3ncccc3c2[nH]1 yielded a pIC50 (second compound 0.0316 µM) of 6.12, a pIC50 (second compound 0.1 µM) of 6.02 and a pIC50 (second compound 0.316 µM) of 5.84. The pIC50 (second compound 1 µM) was 5.86, the pIC50 (second compound 3.16 µM) was 5.83 and the pIC50 (second compound 10 µM) was 5.75. The viability, T/C [1] was 115%, the viability, T/C [13] was 124% and the viability, T/C [2] was 84.3%. The viability, T/C [14] was 41.8%, the viability, T/C [15] was 0.18% and the viability, T/C [16] was 0.17%. The viability, T/C [3] was 99.1%, the viability, T/C [17] was 142% and the viability, T/C [4] was 111%. For the same molecule, the viability, T/C [18] was 48.5%, the viability, T/C [19] was 0.18% and the viability, T/C [20] was 0.23%. For the same molecule, the viability, T/C [5] was 100%, the viability, T/C [21] was 137% and the viability, T/C [6] was 113%. The viability, T/C [22] was 72.3%, the viability, T/C [23] was 0.17% and the viability, T/C [24] was 0.17%. For the same molecule, the viability, T/C [7] was 101%, the viability, T/C [25] was 132% and the viability, T/C [8] was 120%. The viability, T/C [26] was 69.3%, the viability, T/C [27] was 0.29% and the viability, T/C [28] was 0.13%. For the same molecule, the viability, T/C [9] was 96.8%, the viability, T/C [29] was 123% and the viability, T/C [10] was 105%. The viability, T/C [30] was 75.9%, the viability, T/C [31] was 0.29% and the viability, T/C [32] was 0.48%. For the same molecule, the viability, T/C [11] was 99.1%, the viability, T/C [33] was 106% and the viability, T/C [12] was 101%. For the same molecule, the viability, T/C [34] was 97.8%, the viability, T/C [35] was 0.55% and the viability, T/C [36] was 0.36%.

Work on `CC1COCCN1c1cc(C2(O)CC3CCC(C2)O3)c2cnn(-c3ccn[nH]3)c2n1` (stereo not drawn) + Cc1cnc(CNC(=O)c2c(=O)c3ccc(N4CCCN(C)CC4)nc3n3c2sc2ccccc23)cn1 yielded a pIC50 (second compound 0.0316 µM) greater than 7.50, a pIC50 (second compound 0.1 µM) greater than 7.50 and a pIC50 (second compound 0.316 µM) greater than 7.50. The pIC50 (second compound 1 µM) was greater than 7.50, the pIC50 (second compound 3.16 µM) was greater than 7.50 and the pIC50 (second compound 10 µM) was greater than 7.50. The viability, T/C [1] was 23.8%, the viability, T/C [13] was 11.8% and the viability, T/C [2] was 15.9%. It also gave a viability, T/C [14] of 13.4%, a viability, T/C [15] of 18.2% and a viability, T/C [16] of 8.84%. It also gave a viability, T/C [3] of 23.1%, a viability, T/C [17] of 13% and a viability, T/C [4] of 11.2%. For the same molecule, the viability, T/C [18] was 13.4%, the viability, T/C [19] was 15.3% and the viability, T/C [20] was 8.46%. For the same molecule, the viability, T/C [5] was 23.8%, the viability, T/C [21] was 14.9% and the viability, T/C [6] was 12.8%. For the same molecule, the viability, T/C [22] was 14.5%, the viability, T/C [23] was 15.3% and the viability, T/C [24] was 5.38%. For the same molecule, the viability, T/C [7] was 18.4%, the viability, T/C [25] was 13.7% and the viability, T/C [8] was 11.1%. It also gave a viability, T/C [26] of 12.1%, a viability, T/C [27] of 10.5% and a viability, T/C [28] of 4.62%. The viability, T/C [9] was 14.2%, the viability, T/C [29] was 13.5% and the viability, T/C [10] was 10.7%. The viability, T/C [30] was 9.81%, the viability, T/C [31] was 6.85% and the viability, T/C [32] was 0.99%. It also gave a viability, T/C [11] of 14.2%, a viability, T/C [33] of 13.7% and a viability, T/C [12] of 10.6%. For the same molecule, the viability, T/C [34] was 8.67%, the viability, T/C [35] was 6.98% and the viability, T/C [36] was 0.78%.

With `CC1COCCN1c1cc(C2(S(C)(=N)=O)CC2)nc(-c2ccnc3[nH]ccc23)n1` (stereo not drawn) + Cc1cnc(CNC(=O)c2c(=O)c3ccc(N4CCCN(C)CC4)nc3n3c2sc2ccccc23)cn1 the pIC50 (second compound 0.0316 µM) was 6.21, the pIC50 (second compound 0.1 µM) was 6.27 and the pIC50 (second compound 0.316 µM) was greater than 7.50. For the same molecule, the pIC50 (second compound 1 µM) was greater than 7.50, the pIC50 (second compound 3.16 µM) was greater than 7.50 and the pIC50 (second compound 10 µM) was greater than 7.50. It also gave a viability, T/C [1] of 80.3%, a viability, T/C [13] of 86.1% and a viability, T/C [2] of 82.4%. For the same molecule, the viability, T/C [14] was 26.1%, the viability, T/C [15] was 9.1% and the viability, T/C [16] was 10.6%. For the same molecule, the viability, T/C [3] was 59.4%, the viability, T/C [17] was 60.2% and the viability, T/C [4] was 76.2%. The viability, T/C [18] was 32.7%, the viability, T/C [19] was 12.3% and the viability, T/C [20] was 10.4%. The viability, T/C [5] was 42.2%, the viability, T/C [21] was 46.2% and the viability, T/C [6] was 53.2%. The viability, T/C [22] was 32.8%, the viability, T/C [23] was 13.7% and the viability, T/C [24] was 11.3%. For the same molecule, the viability, T/C [7] was 31%, the viability, T/C [25] was 24.5% and the viability, T/C [8] was 23.4%. For the same molecule, the viability, T/C [26] was 23.7%, the viability, T/C [27] was 15.4% and the viability, T/C [28] was 11.1%. For the same molecule, the viability, T/C [9] was 21.3%, the viability, T/C [29] was 23.6% and the viability, T/C [10] was 21.5%. The viability, T/C [30] was 19.3%, the viability, T/C [31] was 13.6% and the viability, T/C [32] was 9.15%. The viability, T/C [11] was 16.2%, the viability, T/C [33] was 19.1% and the viability, T/C [12] was 20.9%. For the same molecule, the viability, T/C [34] was 22.8%, the viability, T/C [35] was 14.3% and the viability, T/C [36] was 7.66%.
